Assay results: ChEMBL document CHEMBL5537208 (J Med Chem, 2024); call rule not given here
Converted amounts (≈) assume the structure as drawn.

Experiments:
[1] = Unbound drug concentration in Wistar rat plasma at 1 mg/kg, po measured after 1 hr by LC-tandem MS analysis; type: ADME, organism-based; settings: in vivo
[2] = molecular target: T1, Orexin receptor type 2 (Homo sapiens, UniProt O43614)
T1 sequence (O43614 whole entry): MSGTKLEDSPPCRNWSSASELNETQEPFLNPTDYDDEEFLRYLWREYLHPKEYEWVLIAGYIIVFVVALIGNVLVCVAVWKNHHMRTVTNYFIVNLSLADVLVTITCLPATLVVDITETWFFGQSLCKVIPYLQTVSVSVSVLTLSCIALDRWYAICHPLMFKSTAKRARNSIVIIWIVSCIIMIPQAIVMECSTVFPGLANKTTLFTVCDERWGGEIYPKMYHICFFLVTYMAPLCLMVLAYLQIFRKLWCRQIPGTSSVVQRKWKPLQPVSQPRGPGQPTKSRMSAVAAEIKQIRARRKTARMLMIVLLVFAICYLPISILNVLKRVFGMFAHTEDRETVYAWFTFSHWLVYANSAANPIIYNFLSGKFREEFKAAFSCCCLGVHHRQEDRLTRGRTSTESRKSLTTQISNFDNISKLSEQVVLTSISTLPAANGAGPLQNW
Description: Antagonist activity at human OX2R expressed in CHO cells preincubated for 120 mins followed by orexin-A addition by FLIPR assay

[3] = Apparent permeability in wild-type MDCK-II cells; type: ADME, cell-based, Canis lupus familiaris; settings: dog
[4] = Drug absorption in rat; type: ADME; settings: in vivo
[5] = in vitro; settings: dog, MDCK-MDR1
Description: Efflux ratio in MDCKI-MDR1 cells

[6] = In vivo receptor occupancy at OX2R in Wistar rat brain at 100 mg/kg, po measured after 1 hr relative to control; type: functional
[7] = Unbound drug concentration in Wistar rat brain at 1 mg/kg, po measured after 1 hr by LC-tandem MS analysis; type: ADME, organism-based; settings: in vivo
[8] = Drug concentration in cerebrospinal fluid of Wistar rat at 1 mg/kg, po measured after 1 hr by LC-tandem MS analysis; type: ADME, organism-based; settings: read-out: Ct
[9] = Ratio of unbound drug concentration in Wistar rat brain to plasma at 1 mg/kg, po measured after 1 hr by LC-tandem MS analysis; type: ADME, organism-based; settings: read-out: K(p,uu,brain)
[10] = in vitro; settings: human, liver microsomes
[11] = Apparent permeability across basal to apical side in MDCKI-MDR1 cells; type: ADME, cell-based, Canis lupus familiaris; settings: dog, MDCK-MDR1
[12] = Solubility of compound in FeSSIF; type: ADME
[13] = Drug concentration in Wistar rat Cerebrospinal fluid at 30 mg/kg, po measured after 1 hr by LC-tandem MS analysis; type: ADME, organism-based; settings: read-out: Ct
[14] = Thermodynamic solubility in FeSSIF at pH 5.0; type: ADME; settings: read-out: Therm_solubility
[15] = Unbound drug concentration in Wistar rat brain at 30 mg/kg, po measured after 1 hr by LC-tandem MS analysis; type: ADME, organism-based; settings: in vivo
[16] = Apparent permeability across apical to basal side in MDCKI-MDR1 cells; type: ADME, cell-based, Canis lupus familiaris; settings: dog, MDCK-MDR1
[17] = in vitro; settings: rat, liver microsomes
[18] = Drug absorption in dog; type: ADME, Canis lupus familiaris; settings: in vivo
[19] = Clearance in rat; type: ADME; settings: in vivo
[20] = molecular target: T2, Orexin/Hypocretin receptor type 1 (Homo sapiens, UniProt O43613)
T2 sequence (O43613 whole entry): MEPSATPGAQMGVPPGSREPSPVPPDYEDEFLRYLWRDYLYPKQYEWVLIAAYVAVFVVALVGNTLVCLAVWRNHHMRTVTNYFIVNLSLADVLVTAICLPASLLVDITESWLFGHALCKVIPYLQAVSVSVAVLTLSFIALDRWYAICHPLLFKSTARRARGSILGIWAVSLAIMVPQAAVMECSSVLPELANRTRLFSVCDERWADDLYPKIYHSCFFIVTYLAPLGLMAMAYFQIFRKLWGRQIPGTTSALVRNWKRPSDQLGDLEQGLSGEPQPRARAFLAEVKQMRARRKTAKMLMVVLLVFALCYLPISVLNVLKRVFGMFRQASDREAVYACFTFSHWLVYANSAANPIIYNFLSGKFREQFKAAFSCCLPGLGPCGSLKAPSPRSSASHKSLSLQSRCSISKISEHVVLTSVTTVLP
Description: Antagonist activity at human OX1R expressed in CHO cells preincubated for 120 mins followed by orexin-A addition by FLIPR assay

[21] = Clearance in dog; type: ADME, Canis lupus familiaris; settings: in vivo
[22] = Thermodynamic solubility in FaSSIF at pH 6.5; type: ADME; settings: read-out: Therm_solubility
[23] = Unbound drug concentration in Wistar rat brain at 100 mg/kg, po measured after 1 hr by LC-tandem MS analysis; type: ADME, organism-based; settings: in vivo
[24] = In vivo receptor occupancy at OX2R in Wistar rat brain at 30 mg/kg, po measured after 1 hr relative to control; type: functional
[25] = Drug concentration in Wistar rat Cerebrospinal fluid at 100 mg/kg, po measured after 1 hr by LC-tandem MS analysis; type: ADME, organism-based; settings: read-out: Ct

Cc1ccc(C(=O)N2CCOC[C@H]2Cc2cccc(-n3nccn3)c2)c(-n2nccn2)c1 [NIVASOREXANT]
Cp(f) [1]: 227 nM | IC50 [2]: 227 nM | Papp [3]: 43.9 ×10⁻⁶ cm/s | Drug absorption [4]: Active | efflux ratio [5]: 3.5 | Occ [6]: 92% | Drug uptake(free) [7]: 413 nM | concentration at 1 h [8]: 718 nM | Kp uu at 1 h [9]: 1.82 | microsomal CLint at 1 µM [10]: 156 µL/min/mg | Papp B→A [11]: 70.5 ×10⁻⁶ cm/s | solubility [12]: 270 µg/mL (≈ 629 µM) | concentration at 1 h [13]: 240 nM | solubility thermodynamic [14]: 150 µg/mL (≈ 349 µM) | Drug uptake(free) [15]: 92 nM | Papp A→B [16]: 20.4 ×10⁻⁶ cm/s | microsomal CLint at 1 µM [17]: > 1250 µL/min/mg | Drug absorption [18]: Active | clearance [19]: 31 mL/min/kg | IC50 [20]: 1.7 nM | clearance [21]: 7.7 mL/min/kg | solubility thermodynamic [22]: 72 µg/mL (≈ 168 µM) | Drug uptake(free) [23]: 413 nM | Occ [24]: 71% | concentration at 1 h [25]: 718 nM
